Test results as given in PubChem BioAssay (NCI).
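These data come from cells grown in 96-well plates and exposed to compound for 48 hours at five concentrations. GI50 is the concentration that inhibits growth by half. The concentration for full growth arrest is given as TGI.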

Assays:
Experiment in all cases: growth of human tumour cells (NCI), 48 h
786-0 renal = test system: 786-0 renal
BT-549 breast = test system: BT-549 breast
CCRF-CEM leukemia = test system: CCRF-CEM leukemia
DU-145 prostate = test system: DU-145 prostate
M14 melanoma = test system: M14 melanoma
RXF 393 renal = test system: RXF 393 renal
SF-295 CNS = test system: SF-295 CNS
SNB-75 CNS = test system: SNB-75 CNS
SW-620 colon = test system: SW-620 colon
UACC-257 melanoma = test system: UACC-257 melanoma

Compound | GI50 (786-0 renal) [µM] | TGI (786-0 renal) [µM] | GI50 (BT-549 breast) [µM] | TGI (BT-549 breast) [µM] | GI50 (CCRF-CEM leukemia) [µM] | TGI (CCRF-CEM leukemia) [µM] | GI50 (DU-145 prostate) [µM] | TGI (DU-145 prostate) [µM] | GI50 (M14 melanoma) [µM] | TGI (M14 melanoma) [µM] | GI50 (RXF 393 renal) [µM] | TGI (RXF 393 renal) [µM] | GI50 (SF-295 CNS) [µM] | TGI (SF-295 CNS) [µM] | GI50 (SNB-75 CNS) [µM] | TGI (SNB-75 CNS) [µM] | GI50 (SW-620 colon) [µM] | TGI (SW-620 colon) [µM] | GI50 (UACC-257 melanoma) [µM] | TGI (UACC-257 melanoma) [µM]
CN1CCN(C(=O)OCc2nc3c(N4CCOCC4)nc(Cl)nc3n2C)CC1 | 1.56 | 3 | 1.09 | 2.44 | 0.313 | 1.78 | 1.39 | 3.09 | 1.19 | 2.65 | 1.08 | 2.31 | 8.35 | 20.7 | 1.35 | 2.73 | 0.484 | 1.83 | 1.39 | 3.22
C=C1C(=O)O[C@H]2[C@H]1CC/C(Cn1cc(-c3ccc(OC)cc3)nn1)=C\CC[C@@]1(C)O[C@@H]21 | 1.24 | 2.65 | 1.31 | 2.89 | 0.29 | 0.823 | 1.11 | 2.32 | 1.3 | 3.09 | 0.703 | 2.02 | 11 | 23.7 | 1.47 | 3.28 | 0.498 | 1.74 | 1.78 | 3.85
COC(=O)[C@]12CC[C@@H](C)[C@H](C)[C@@H]1C1=CC[C@@H]3[C@@]4(C)C/C(=N\O)[C@H](O)[C@@]5(C)COC(=C45)C[C@@]3(C)[C@]1(C)CC2 | 1.76 | 3.26 | 15.7 | 34.8 | 2.79 | 8.83 | 8.57 | 22.8 | 14.2 | 27.7 | 2.41 | 7.36 | 4.82 | 17.1 | 3.51 | 21.4 | 8.42 | 21.9 | 18.6 | 34.5
CC(C)c1nc(CN(C)C(=O)N[C@H](C(=O)N[C@@H](Cc2ccccc2)C[C@H](O)[C@H](Cc2ccccc2)NC(=O)OCc2cncs2)C(C)C)cs1 | 24.7 | 53.5 | 8.71 | > 76.5 | 19.8 | 50.5 | 1.42 | – | 18 | 41.7 | 17.7 | 35.8 | 22.1 | 50.5 | 20.4 | 54.3 | 34.9 | > 100 | 18.4 | 38
Oc1c(CN2CCC(N3CCCCC3)CC2)cc(Cc2cc(CN3CCC(N4CCCCC4)CC3)c(O)c3ncccc23)c2cccnc12 | 1.53 | 5.96 | 1.48 | 5.13 | 0.403 | 3.51 | 0.871 | 16.1 | 1.11 | 2.75 | 1.94 | 10.2 | 1.64 | 3.58 | 1.65 | 13.4 | 0.726 | 15.1 | 2.08 | 4.31
COc1cc([N+](=O)[O-])cc2c3c(n(C)c12)[C@@]1(C)CCC2c4ccc(OCc5ccccc5)cc4CCC2C1C3 (stereo partly specified) | > 100 | > 100 | > 100 | > 100 | > 100 | > 100 | > 100 | > 100 | > 100 | > 100 | 40.8 | > 100 | 35 | > 100 | 23.9 | 63.9 | 90.6 | > 100 | 85.6 | > 100
Cc1ccc2c(c1)[n+]([O-])c(N)n[n+]2[O-] | – | > 100 | – | > 100 | – | > 100 | – | > 100 | – | > 100 | – | – | – | > 100 | – | > 100 | – | > 100 | – | > 100
O=C1CCCCN1CCCCC#Cc1ccccc1C#Cc1ccc([N+](=O)[O-])cc1 | 8.41 | 79 | 16.6 | 44.6 | 2.87 | 18.2 | 17.5 | 36 | 5.16 | 19.3 | 1.68 | 11.1 | – | – | 2.21 | 28.9 | 5.18 | 18.3 | 2.89 | 8.24
C[C@@H]1OC(O)[C@@H](F)[C@H](O)[C@@H]1O (stereo partly specified) | > 100 | > 100 | > 100 | > 100 | > 100 | > 100 | > 100 | > 100 | > 100 | > 100 | – | – | > 100 | > 100 | > 100 | > 100 | > 100 | > 100 | > 100 | > 100
C=CCCCCCCCCC(=O)[O][Sn]([CH2]CCC)([CH2]CCC)[CH2]CCC | 0.143 | 0.275 | 0.14 | 0.277 | – | – | 0.15 | 0.29 | 0.156 | 0.299 | 0.0991 | 0.255 | 0.159 | 0.337 | 0.134 | 0.326 | 0.162 | 0.332 | 0.144 | 0.291
COc1ccc(/C(COc2c(-c3ccccc3)oc3ccccc3c2=O)=N\O)cc1 | 40.6 | > 50 | 12.3 | 25.6 | 37 | > 50 | 22 | > 50 | 28.3 | > 50 | 31.9 | > 50 | – | – | 22.2 | > 50 | 19.5 | > 50 | 17.8 | > 50
CC1(C)OC2[C@@H](CNC(=O)NC(=O)NC(=O)CI)O[C@@H](n3cnc4c(NC(=O)Nc5ccccc5)ncnc43)[C@H]2O1 (stereo partly specified) | 7.47 | 14.4 | 7.83 | 14.7 | – | – | 14.5 | > 50 | 6.95 | 14.3 | 6.96 | 13.6 | 9.18 | 19.4 | 6.62 | 13.3 | 2.08 | 8.13 | 9.91 | 17.8
Nc1nc(Cl)c2ncn(Cc3ccc(C45CC6CC(CC(C6)C4)C5)c(O)c3)c2n1 | 6.04 | 20 | 6.82 | 25.2 | 0.809 | 10.6 | 3.14 | 11.8 | – | – | 1.87 | 6.56 | 3.29 | 17.4 | 3.88 | 28.9 | 2.95 | 13.3 | 0.578 | 4.86
COc1ccc(-c2cnnc3c(-c4cccc(C(F)(F)F)c4)cnn23)cc1 | 2.76 | > 100 | 3.4 | > 100 | > 100 | > 100 | 3.97 | > 100 | > 100 | > 100 | 0.0291 | 3.07 | – | – | 1.51 | 4.6 | > 100 | > 100 | 6.44 | > 100
O/N=C/C1c2ccccc2-c2ccccc21 | – | 21.9 | – | 33.1 | – | 50.4 | – | 45.9 | – | 32.7 | – | 41.5 | – | 53.4 | – | – | – | 40.7 | – | 34
CC1=CC(=Nc2ccc(N(CCCl)CCCl)cc2)C=C(C)C1=O | 0.457 | 2.39 | 1.46 | 3.16 | 0.187 | 5.21 | 0.374 | 4.57 | 0.603 | 3.98 | – | – | 0.626 | 22.6 | 1 | 7.87 | 0.816 | 4.6 | 1.49 | 5.12
COc1cc(C2=NOC(c3cc(OC)c(OC)c(OC)c3)C2)ccc1OCCCCOc1cc2c(cc1OC)C(=O)N1CCC[C@H]1C=N2 (stereo partly specified) | 0.282 | 0.913 | 0.156 | 0.385 | 0.164 | 0.466 | 0.432 | 3.28 | 0.206 | 0.432 | – | – | 0.327 | 1.28 | 0.35 | 1.6 | 0.246 | 0.855 | 0.286 | 0.727
COc1ccc(NC2=CC(=O)C(=O)c3ccccc32)nn1 | – | 3.76 | – | 2.05 | – | > 100 | – | 3.19 | – | 0.668 | – | 3.78 | – | 2.15 | – | – | – | 3.4 | – | 3.24
COC1/C=C\C=C(/C)C(=O)NC2=CC(=O)C(=O)C(=C2O)CC(C)CC(OC)C(O)C(C)/C=C(\C)C1OC(N)=O (stereo unspecified) | – | 24.3 | – | > 100 | – | 25.8 | – | 35.5 | – | > 53.2 | – | 27.5 | – | > 100 | – | – | – | 18.3 | – | > 36.3
CCC(C)c1c(Cl)nc(Cl)nc1Cl (stereo unspecified) | – | 30 | – | 4.65 | – | > 100 | – | 30.4 | – | 3.43 | – | 20.7 | – | 42.2 | – | 26.8 | – | > 100 | – | –
